# Source: patent US20120177601A1, “TREATMENT OF HEPATITIS C VIRUS INFECTIONS” (THE USA AS REPRESENTED BY THE SECRETARY OF THE DEPARTMENT …, priority 2009, published 2012)
# “And” between values parts separate entries of the source, which are not always exact repeats. Identical values can stand only once. Counter-ions that a name gives are not always drawn. Like-named read-outs stand apart in the source and are kept apart here.
# Experiments:
# [1] = test system: Huh5-15NS replicon (sub-genomic HCV RNA); assay: HCV replication in nonstructural (NS) replicon cells, real-time RT-PCR (ΔCT); type: cell-based; conditions: for Relative [HCV] [ΔCT]: overnight, Huh5-15NS, control vehicle = 1.0; for concentration showing significant antiviral activity / required to suppress HCV replication: NS replicon, 48 hr
# From the text: (§1) Cell lines and cell culture. The human hepatoma cell line (Huh5-15) with replicating sub-genomic HCV RNA (Lohmann et al., 1999) was a kind gift of Dr. Volker Lohmann (Institute for Virology, Johannes-Gutenberg University, Mainz, Germany), and cultivated as described (Zhu et al., 2008). Huh7.5 cells harboring full length (Huh7.5FL) Conl replicons (Blight et al., 2002) were a kind gift of Dr. Charles Rice (Rockefeller University, New York, N.Y.). These cells were passed as recommended by their laboratory of origin (Blight et al., 2002). An infectious clone of HCV, J6/JFH, was inoculated into Huh7.5 cells and the cultures passed as previously described (Lindenbach et al., 2005). Cells were incubated with BV, BR, or FeCl2 for 24-48 h in DMEM containing 5% FBS.
# (§2) Quantitative Real-time RT-PCR. Total RNA was extracted from cells using Trizol reagent (Invitrogen, Carlsbad, Calif.), treated with Turbo RNase free DNase (Ambion, TX), and processed as described (Zhu et al., 2008). To assess replication, the primers and probe designed by Takeuchi et al. (1999) targeting sequences located in 5′UTR (nt130-290) were employed as described for each replicon line (Blight et al., 2002; Lohmann et al., 2003). Real-time RT-PCR was performed using Taq DNA polymerase with the TaqMan Universal PCR Master Mix Protocol (Perkin Elmer Applied Biosystems, Foster City, Calif.). Quantitation was performed using the comparative cycle threshold (ΔCT) method as described previously (Abdalla et al., 2004).
# [2] = test system: Huh7.5FL replicon (full length Con1); assay: HCV replication in full-length (FL) replicon cells, real-time RT-PCR (ΔCT); type: cell-based; conditions: for Relative [HCV] [ΔCT]: overnight, Huh7.5FL, control vehicle = 1.0; for concentration showing significant antiviral activity / required to suppress HCV replication: FL replicon, 48 hr
# From the text: as §1, §2
# [3] = target: T1, HCV NS3/4A recombinant protease (UniProt O92972); type: biochemical
# T1 construct: other: recombinant protease, 591 nm/622 nm FRET peptide, regression analysis; other: recombinant NS3/4A, Lineweaver-Burk; other: BV versus BR; effect o; fused on or other part: By knowledge of the vendor's product, the NS4A cofactor segment of the same polyprotein is fused to the N-terminus of the NS3 protease domain
# T1 sequence (O92972 1027-1657): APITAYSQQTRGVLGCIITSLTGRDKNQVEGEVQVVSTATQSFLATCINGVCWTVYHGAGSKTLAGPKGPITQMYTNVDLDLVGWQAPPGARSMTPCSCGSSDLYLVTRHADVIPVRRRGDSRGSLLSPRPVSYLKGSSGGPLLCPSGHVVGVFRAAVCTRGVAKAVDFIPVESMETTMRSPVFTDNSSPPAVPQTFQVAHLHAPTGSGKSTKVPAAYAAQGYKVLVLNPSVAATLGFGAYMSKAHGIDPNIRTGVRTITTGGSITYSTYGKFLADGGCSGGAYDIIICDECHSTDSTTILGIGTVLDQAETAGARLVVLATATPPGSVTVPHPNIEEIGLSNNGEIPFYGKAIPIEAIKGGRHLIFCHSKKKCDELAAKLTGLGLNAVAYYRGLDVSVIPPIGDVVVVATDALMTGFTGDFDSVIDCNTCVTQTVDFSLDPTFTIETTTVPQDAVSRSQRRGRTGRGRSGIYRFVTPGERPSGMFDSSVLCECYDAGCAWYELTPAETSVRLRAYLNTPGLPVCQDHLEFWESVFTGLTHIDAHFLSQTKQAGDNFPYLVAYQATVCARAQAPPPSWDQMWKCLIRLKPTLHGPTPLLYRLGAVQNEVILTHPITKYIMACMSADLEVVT
# Method: In vitro assay of HCV NS3/4A recombinant protease. Protease activity was determined fluorometrically with the SensoLyte 620 HCV Protease Assay (AnaSpec, Fremont, Calif.) using a wide wavelength excitation/emission (591 nm/622 nm respectively) fluorescence energy transfer peptide according to the manufacturer's instructions. Control incubations with BV or metabolite only were performed to eliminate or correct for autofluorescence or quenching. A competitive inhibitor of the NS3/4A protease, AnaSpec #25346, was used as positive control.
# [4] = target: T2, endogenous NS3/4A protease from replicons (Hepatitis C virus genotype 1b, UniProt Q9WMX2); assay: Endogenous NS3/4A protease assay with replicon lysates (FRET); type: biochemical, HCV; conditions: protease freshly prepared from replicons
# T2 construct: For assays employing endogenous NS3/4A protease; expressed in transfected cells; host or cells: HCV replicon cells (Huh5-15 sub-genomic or Huh7.5FL Con1), Triton X-100 lysate
# T2 sequence (Q9WMX2 1658-1711): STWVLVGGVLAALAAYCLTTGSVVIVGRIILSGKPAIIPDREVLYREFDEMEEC
# T2 sequence (Q9WMX2 1027-1657): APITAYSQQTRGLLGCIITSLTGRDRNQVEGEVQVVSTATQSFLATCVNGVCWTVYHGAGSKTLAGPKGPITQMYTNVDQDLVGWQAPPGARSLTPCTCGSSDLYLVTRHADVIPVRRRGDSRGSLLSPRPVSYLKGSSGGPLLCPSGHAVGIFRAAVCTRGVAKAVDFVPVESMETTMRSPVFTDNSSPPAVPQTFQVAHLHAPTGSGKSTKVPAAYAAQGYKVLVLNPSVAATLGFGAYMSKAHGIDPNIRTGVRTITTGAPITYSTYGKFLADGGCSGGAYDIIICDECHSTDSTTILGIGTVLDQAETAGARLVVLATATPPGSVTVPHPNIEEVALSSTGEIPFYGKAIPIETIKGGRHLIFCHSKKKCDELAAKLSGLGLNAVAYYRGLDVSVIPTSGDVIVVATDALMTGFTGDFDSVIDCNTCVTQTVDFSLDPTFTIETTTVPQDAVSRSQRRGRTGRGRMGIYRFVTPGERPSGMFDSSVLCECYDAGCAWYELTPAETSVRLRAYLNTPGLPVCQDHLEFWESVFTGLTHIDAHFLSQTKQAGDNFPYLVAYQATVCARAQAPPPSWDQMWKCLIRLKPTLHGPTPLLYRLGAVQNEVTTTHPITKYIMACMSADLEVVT
# Method: For assays employing endogenous NS3/4A protease, the high-throughput FRET assay was used with modifications (Yu et al., 20009). Replicon cells at 90% confluence were lysed in ice-cold 1.25% Triton X-100 lysis buffer (Yu et al., 20009). Serial dilutions of lysates were added in triplicate to black 96-well plates, together with designated concentrations of tetrapyrrole. The HiLyte Flur™ TR/QXL™ 610 substrate solution (AnaSpec) was prepared according to the manufacturer's instructions. The plate and substrate were incubated at 37° C. for 15 min, and then 50 μl substrate solution was added to each well. The plates were incubated at room temperature for 30 min, avoiding direct light. The fluorescence intensity was then measured as above for recombinant enzyme assays using FLUOstar Optima (BMG Lab Tech, Cary, N.C.). To ensure specificity for the NS3/4A protease, lysates of parental Huh7 and Huh7.5 cells were run in every assay and the results subtracted as background fluorescence.
# vascular injury = conditions: rats, 50 mg/kg; cited from earlier work
# [5] = test system: J6/JFH infectious HCV in Huh7.5 cells; assay: J6/JFH HCV infection of Huh7.5 cells (immunostaining, HCV RNA); type: cell-based; conditions: BV 20-200 μM, 72 hr; HCV polyvalent sera immunoreactivity and HCV RNA
# From the text: as §1, with “Cells were incubated with BV, BR, or FeCl2 for 24-48 h in DMEM containing 5% FBS.” left out
# Quantitative Real-time RT-PCR. Total RNA was extracted from cells using Trizol reagent (Invitrogen, Carlsbad, Calif.), treated with Turbo RNase free DNase (Ambion, TX), and processed as described (Zhu et al., 2008). […] Quantitation was performed using the comparative cycle threshold (ΔCT) method as described previously (Abdalla et al., 2004).
# Immunocytochemical staining. […] Antibody binding was evaluated following labeling with anti-human secondary antibody-alkaline phosphatase conjugate and results recorded by photomicroscopy.
# [6] = test system: HCV replication in FL and NS replicons; assay: BV with α-interferon, HCV replication in replicons; type: cell-based; conditions: 50 or 100 μM BV overnight with α-interferon
# Method: FL (FIG. 7A) or NS (FIG. 7B) replicons were treated with indicated amounts of α-interferon alone or in the presence of 50 or 100 μM BV overnight. HCV replication was determined by real-time RT-PCR using the comparative cycle threshold (ΔCT) method. (*) p<0.01 vs. control; (#) p<0.005 vs. control.
# as §2
# [7] = in vivo; cited from earlier work
# [8] = test system: HCV RNA in NS and FL replicons after BVR siRNA; type: cell-based; conditions: BV 20 μM or BR 100 μM overnight, both replicon lines, vs scrambled RNA
# Method: as §2
# Biliverdin reductase (BVR) knockdown. Biliverdin reductase (BVR) siRNA and control (scrambled) siRNA were purchased from Santa Cruz Biotechnology (sc-44650 and sc-37007). BVR knockdown was performed as described previously (Ryter et al., 2007). Efficiency of the knockdown was monitored by semiquantitative densitometry of BVR WB.
# [9] = test system: NS5A and core protein in NS and FL replicons; assay: Western blot / immunoprecipitation of HCV proteins in replicons; type: cell-based; conditions: for NS5A protein level (WB): both replicon lines; for NS5A protein level (WB) / core protein level (WB): 24 hr, BV 20 μM, BR 200 μM, FeCl2 100 mM as printed
# Method: Western blot analysis. Western blots (WB) were performed as previously described using enhanced chemiluminescence for signal detection (ECLTM, Amersham) (Abdalla et al., 2005). Signal intensities were quantified using Image J software (NIH).
# Immunoprecipitation of NS5A. Log-phase replicons were treated with various concentrations of BV for 48 hr, washed, lysed in cell lysis buffer (Cell Signaling Technology, Beverly, Mass.) and clarified by cold centrifugation (14,000×g for 10 min). An aliquot of supernatant containing 100 μg protein was incubated with 1 μg of HCV NS5A monoclonal antibody (Meridian Life Science, Saco, Me.) and 20 μl of rProtein G Agarose (Invitrogen, CA) overnight at 4° C. The agarose was collected by 3000×g spin, washed three times with ice-cold PBS, then dissolved in 40 μL 2× Laemmli sample buffer (Bio-Rad, CA) and assayed by WB.
# [10] = test system: replicon or parental cell lines (Huh7.5); assay: Cytotoxicity, MTT assay; type: cell-based, human; conditions: 20-200 μM BV
# Method: Cytotoxicity assay. Cytotoxicity was assessed using the MTT assay as detailed previously (Wen et al., 2008). Cells (1×10^4 per well) were seeded in 96-well culture plates and allowed to attach overnight. […]
# HIV-1 protease = HIV-1 protease (Human immunodeficiency virus type 1 group M subtype B, UniProt P04585); conditions: McPhee et al. 1996; cited from earlier work
# LPS induced septic shock = conditions: rats, 35 mg/kg; cited from earlier work
# [11] = unconjugated form; cited from earlier work
# [12] = recombinant protease, 591 nm/622 nm FRET peptide, regression analysis; read-out: IC50, inhibition of HCV NS3/4A protease
compound,measurement,setting,value
hemin [Heme],Relative [HCV] [ΔCT],"[1]; Heme 5 uM, mean of four",0.27
same,Relative [HCV] [ΔCT],[1]; Heme 10 uM,0.09
same,Relative [HCV] [ΔCT],[1]; Heme 20 uM,0.03
same,lowest level with apparent antiviral effect,"[1]; hemin, replicons",5
same,Relative [HCV] [ΔCT],[2]; Heme 5 uM,0.22
same,Relative [HCV] [ΔCT],[2]; Heme 10 uM,0.08
same,Relative [HCV] [ΔCT],[2]; Heme 20 uM,0.04
same,lowest level with apparent antiviral effect,"[2]; hemin, replicons",5
Bilirubin mixed isomers [Bilirubin (mixed isomers)],concentration showing significant antiviral activity / required to suppress HCV replication,[1],200 µM
same,concentration showing significant antiviral activity / required to suppress HCV replication,[2],200 µM
same,IC50,[3]; [12],> 300 µM
"CCC1=C(C)/C(=C/c2[nH]c(Cc3[nH]c(/C=C4\NC(=O)C(C)=C4CC)c(C)c3CCC(=O)O)c(CCC(=O)O)c2C)NC1=O [Mesobilirubin, mesobilirubin]",IC50,[3]; [12],> 300 µM
"C=CC1=C(C)/C(=C/C2=NC(=C\c3[nH]c(/C=C4\NC(=O)C(C)=C4C=C)c(C)c3CCC(=O)O)/C(CCC(=O)O)=C2C)NC1=O [Biliverdin, biliverdin-IX-α hydrochloride]",concentration showing significant antiviral activity / required to suppress HCV replication,[1],20 µM
same,inhibition of endogenous protease compared with recombinant enzyme,[4],slightly higher concentrations
same,vascular injury,vascular injury,prevented vascular injury
same,concentration showing significant antiviral activity / required to suppress HCV replication,[2],20 µM
same,Huh7.5 cell infection with J6/JFH,[5],markedly decreased
same,effect of BV on α-interferon antiviral activity,[6],clear additive effect
same,oral bioavailability,[7],relatively poor oral bioavailability
same,effect of BVR knockdown on antiviral activity (HCV RNA),[8],significantly enhanced
same,NS5A protein level (WB),[9],decreased NS5A
same,core protein level (WB),[9]; full-length replicons,reduced
same,"NS5A by WB or immunoprecipitation, concentration series","[9]; full-length replicons, various concentrations of BV",dose-dependently decreased NS5A
same,toxicity (MTT) with FBS,"[10]; inclusion of 3-5% FBS, data not shown",toxicity was eliminated
same,toxicity (MTT),"[10]; serum-free culture medium, 24-48 hr",15%
same,difference in IC50 of BV and BR for the NS3/4a protease,[3]; BV versus BR,at least 10 fold
same,mode of inhibition of NS3/4A protease,[3]; Lineweaver-Burk and secondary plots,both noncompetitive and competitive inhibitor activity
same,effect of BV together with #25346 on protease activity,[3]; both BV and #25346 present,additive effect
same,IC50,"[3]; read-out: IC50, inhibition of HCV NS3/4A protease; recombinant protease, 591 nm/622 nm FRET peptide, regression analysis; listed as BV, hydrochloride",9.3 µM and 9 µM
same,Ki,"[3]; read-out: Ki (competitive), secondary plot Km/V vs [BV]; recombinant NS3/4A, Lineweaver-Burk",0.6 µM
same,Ki,"[3]; read-out: Ki′ (noncompetitive), secondary plot 1/Vap vs [BV]; recombinant NS3/4A, Lineweaver-Burk",1.1 µM
same,Ki,HIV-1 protease,1 µM
same,LPS induced septic shock,LPS induced septic shock,protected rats against LPS induced septic shock
"[Cl][Fe][Cl] [FeCl2, reference compound]",HCV RNA,"[2]; FeCl2 100 mM as printed, replicon line not specified, not shown",diminishing HCV RNA
same,NS5A protein level (WB),[9],decreased
same,core protein level (WB),[9]; full-length replicons,decreased
"C=CC1=C(C)/C(=C/c2[nH]c(Cc3[nH]c(/C=C4\NC(=O)C(C)=C4C=C)c(C)c3CCC(=O)O)c(CCC(=O)O)c2C)NC1=O [BR, Bilirubin]",oral bioavailability,[7],relatively poor oral bioavailability
same,solubility in water,[11],not soluble in water
same,effect of BVR knockdown on antiviral activity (HCV RNA),[8],no significant effect
same,IC50,"[3]; read-out: IC50, inhibition of HCV NS3/4A protease; recombinant protease, 591 nm/622 nm FRET peptide, regression analysis",> 300 µM
same,Ki,HIV-1 protease,0.8 µM
"C=CC1=C(C)/C(=C/c2[nH]c(Cc3[nH]c(/C=C4\NC(=O)C(C)=C4C=C)c(C)c3CCC(=O)O)c(CCC(=O)O)c2C)NC1=O [Bilirubin IXα, bilirubin-IX-α]",concentration showing significant antiviral activity / required to suppress HCV replication,[1],200 µM
same,concentration showing significant antiviral activity / required to suppress HCV replication,[2],200 µM
same,IC50,[3]; [12],> 300 µM
"C=CC1=C(C)/C(=C/C2=NC(=C\c3[nH]c(/C=C4/NC(=O)C(C)=C4C=C)c(C)c3CCC(=O)OC)/C(CCC(=O)OC)=C2C)NC1=O [Biliverdin dimethylester, biliverdin dimethyl ester]",IC50,[3]; [12],> 300 µM
